Measurements reported in the NIST ThermoML archive (doi:10.1021/acs.jced.5b00251).
± gives the expanded uncertainty stated by the source.

Assay: refractive index (other wavelength) (dimensionless)
Conditions: 101 kPa, Liquid, Standard Abbe refractometry

Row | SMILES | refractive index (293.15 K, Wavelength=436.1 nm) | refractive index (293.15 K, Wavelength=513.9 nm) | refractive index (293.15 K, Wavelength=589.3 nm) | refractive index (293.15 K, Wavelength=633.2 nm) | refractive index (293.15 K, Wavelength=657.2 nm) | refractive index (298.15 K, Wavelength=436.1 nm) | refractive index (298.15 K, Wavelength=513.9 nm) | refractive index (298.15 K, Wavelength=589.3 nm) | refractive index (298.15 K, Wavelength=633.2 nm) | refractive index (298.15 K, Wavelength=657.2 nm) | refractive index (303.15 K, Wavelength=436.1 nm) | refractive index (303.15 K, Wavelength=513.9 nm) | refractive index (303.15 K, Wavelength=589.3 nm) | refractive index (303.15 K, Wavelength=633.2 nm) | refractive index (303.15 K, Wavelength=657.2 nm) | refractive index (308.15 K, Wavelength=436.1 nm) | refractive index (308.15 K, Wavelength=513.9 nm) | refractive index (308.15 K, Wavelength=589.3 nm) | refractive index (308.15 K, Wavelength=633.2 nm) | refractive index (308.15 K, Wavelength=657.2 nm) | other results
1 | c1ccc2c(c1)CCCC2 [1,2,3,4-tetrahydronaphthalene] | 1.56232 ± 0.00078 | 1.54872 ± 0.001 | 1.5412 ± 0.00082 | 1.53808 ± 0.00078 | 1.53694 ± 0.00075 | 1.5598 ± 0.00078 | 1.54625 ± 0.00077 | 1.53875 ± 0.00076 | 1.53565 ± 0.00075 | 1.53452 ± 0.00075 | 1.55719 ± 0.00078 | 1.54373 ± 0.00076 | 1.53628 ± 0.00075 | 1.53321 ± 0.00075 | 1.53208 ± 0.00074 | 1.55471 ± 0.00077 | 1.5413 ± 0.00076 | 1.53389 ± 0.00075 | 1.53083 ± 0.00074 | 1.52971 ± 0.00074 | refractive index (313.15 K, Wavelength=436.1 nm): 1.55219 ± 0.00077; refractive index (313.15 K, Wavelength=513.9 nm): 1.53886 ± 0.00076; refractive index (313.15 K, Wavelength=589.3 nm): 1.53148 ± 0.00075; refractive index (313.15 K, Wavelength=633.2 nm): 1.52844 ± 0.00073; refractive index (313.15 K, Wavelength=657.2 nm): 1.52732 ± 0.00074; refractive index (318.15 K, Wavelength=436.1 nm): 1.54974 ± 0.00077; refractive index (318.15 K, Wavelength=513.9 nm): 1.53647 ± 0.00059; refractive index (318.15 K, Wavelength=589.3 nm): 1.52912 ± 0.00067; refractive index (318.15 K, Wavelength=633.2 nm): 1.52629 ± 0.0007; refractive index (318.15 K, Wavelength=657.2 nm): 1.52495 ± 0.00074
2 | CCCCCCCCCCCC [dodecane] | 1.43105 ± 0.00072 | 1.42506 ± 0.00082 | 1.42171 ± 0.00074 | 1.42031 ± 0.00073 | 1.41993 ± 0.00071 | 1.42886 ± 0.00072 | 1.42291 ± 0.00071 | 1.41957 ± 0.00071 | 1.41815 ± 0.00071 | 1.41777 ± 0.00071 | 1.42666 ± 0.00072 | 1.42074 ± 0.00072 | 1.41742 ± 0.00071 | 1.41601 ± 0.00071 | 1.41564 ± 0.00071 | 1.42445 ± 0.00072 | 1.41857 ± 0.00072 | 1.41527 ± 0.00071 | 1.41385 ± 0.00071 | 1.4135 ± 0.00071 | refractive index (313.15 K, Wavelength=436.1 nm): 1.42223 ± 0.00072; refractive index (313.15 K, Wavelength=513.9 nm): 1.41638 ± 0.00072; refractive index (313.15 K, Wavelength=589.3 nm): 1.41309 ± 0.00071; refractive index (313.15 K, Wavelength=633.2 nm): 1.41171 ± 0.00072; refractive index (313.15 K, Wavelength=657.2 nm): 1.41134 ± 0.00071; refractive index (318.15 K, Wavelength=436.1 nm): 1.42001 ± 0.00072; refractive index (318.15 K, Wavelength=513.9 nm): 1.41418 ± 0.00063; refractive index (318.15 K, Wavelength=589.3 nm): 1.41093 ± 0.00069; refractive index (318.15 K, Wavelength=633.2 nm): 1.40943 ± 0.0007; refractive index (318.15 K, Wavelength=657.2 nm): 1.4092 ± 0.00071
3 | CC(C)Cc1ccccc1 [(2-methylpropyl)benzene] | 1.50429 ± 0.00078 | 1.4927 ± 0.001 | 1.48654 ± 0.0008 | 1.48377 ± 0.00078 | 1.48286 ± 0.00076 | 1.50172 ± 0.00078 | 1.49023 ± 0.00076 | 1.48406 ± 0.00076 | 1.48132 ± 0.00075 | 1.48035 ± 0.00075 | 1.49916 ± 0.00078 | 1.48772 ± 0.00077 | 1.4815 ± 0.00076 | 1.47888 ± 0.00075 | 1.47798 ± 0.00074 | 1.49659 ± 0.00078 | 1.48521 ± 0.00077 | 1.47904 ± 0.00075 | 1.47643 ± 0.00075 | 1.47555 ± 0.00075 | refractive index (313.15 K, Wavelength=436.1 nm): 1.494 ± 0.00078; refractive index (313.15 K, Wavelength=513.9 nm): 1.48268 ± 0.00076; refractive index (313.15 K, Wavelength=589.3 nm): 1.47657 ± 0.00076; refractive index (313.15 K, Wavelength=633.2 nm): 1.47397 ± 0.00075; refractive index (313.15 K, Wavelength=657.2 nm): 1.47309 ± 0.00075; refractive index (318.15 K, Wavelength=436.1 nm): 1.49143 ± 0.00078; refractive index (318.15 K, Wavelength=513.9 nm): 1.48023 ± 0.0006; refractive index (318.15 K, Wavelength=589.3 nm): 1.47409 ± 0.0007; refractive index (318.15 K, Wavelength=633.2 nm): 1.47151 ± 0.00072; refractive index (318.15 K, Wavelength=657.2 nm): 1.47063 ± 0.00075
